The test addresses T1, Ammonium transporter MEP2 (Saccharomyces cerevisiae (strain ATCC 204508 / S288c), UniProt P41948).
T1 sequence (P41948 whole entry): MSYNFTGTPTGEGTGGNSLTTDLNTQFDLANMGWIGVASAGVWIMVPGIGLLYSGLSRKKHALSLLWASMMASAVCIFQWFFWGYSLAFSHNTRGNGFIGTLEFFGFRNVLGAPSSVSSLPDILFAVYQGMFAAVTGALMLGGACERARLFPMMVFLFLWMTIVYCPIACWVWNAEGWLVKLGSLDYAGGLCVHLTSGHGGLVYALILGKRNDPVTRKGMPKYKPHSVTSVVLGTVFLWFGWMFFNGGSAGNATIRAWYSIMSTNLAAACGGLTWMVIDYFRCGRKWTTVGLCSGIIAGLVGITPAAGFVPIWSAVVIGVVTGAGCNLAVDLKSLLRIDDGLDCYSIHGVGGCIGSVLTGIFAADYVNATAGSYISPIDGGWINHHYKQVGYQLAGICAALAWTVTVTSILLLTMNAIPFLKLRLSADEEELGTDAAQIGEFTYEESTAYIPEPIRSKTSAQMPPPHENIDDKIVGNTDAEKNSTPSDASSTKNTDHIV
The experiment in a line: modulators of MEP2-GFP levels in yeast, dose response, S. cerevisiae, flow cytometry GFP, MLPCN hits (AID 2742). On the technique in general: A flow cytometer gives signals particle by particle.

As usually defined, the EC50 is the concentration at which the effect is half-maximal. The low end stands for greater potency, the high end for weaker potency. In turn, `CCN1/C(=C/c2ccc3cc(C)ccc3[n+]2CC)Sc2ccc3sccc3c21` [MLS000724336] yielded an EC50 of over 33 µM.

The values are drawn from BindingDB's records for doi:10.7270/Q2F18X5F (Nmmlsc, 2010).
